# Data published in patent US20240279281A1, “Peptide Inhibitors of Interleukin-23 Receptor” (Janssen Pharmaceutica NV, priority 2023, published 2024).
# pIC50: −log10 of the molar value. Like-named read-outs stand apart in the source and are kept apart here. Positions of bridges follow the written chain, without caps; N, C: chain ends. Non-standard residues stand in square brackets, D forms with d. Residues, ends and D or L forms follow the SMILES beside them. Trp(7-(3-AcNH-Ph)) = CC(=O)Nc1cccc(-c2cccc3c(C[C@H](N)C(=O)O)c[nH]c23)c1; 2Nal(6-OH) = N[C@@H](Cc1ccc2cc(O)ccc2c1)C(=O)O; Trp(7-Me) = Cc1cccc2c(C[C@H](N)C(=O)O)c[nH]c12; d(hLys(Me3)) = C[N+](C)(C)CCCCC[C@@H](N)C(=O)O; AEF = NCCOc1ccc(C[C@H](N)C(=O)O)cc1; 3Pal = N[C@@H](Cc1cccnc1)C(=O)O; Lys(Me) = CNCCCC[C@H](N)C(=O)O; Pen = CC(C)(S)[C@H](N)C(=O)O; Thp = NC1(C(=O)O)CCOCC1; Sar = CNCC(=O)O
# What was measured:
# [1] = disulfide bond, 20-membered ring
# IL-23R = target: T1, IL-23R (Homo sapiens, UniProt Q5VWK5); experiment: IL23R Reporter Assay; format: cell-based; conditions: HEK293 cells containing IL-23R, IL-12Rβ1 and STAT-inducible luciferase reporter; 10 ng/mL IL-23; 5 h; read-out: IC50
# T1 construct: host or cells: HEK293
# T1 sequence (Q5VWK5 24-629): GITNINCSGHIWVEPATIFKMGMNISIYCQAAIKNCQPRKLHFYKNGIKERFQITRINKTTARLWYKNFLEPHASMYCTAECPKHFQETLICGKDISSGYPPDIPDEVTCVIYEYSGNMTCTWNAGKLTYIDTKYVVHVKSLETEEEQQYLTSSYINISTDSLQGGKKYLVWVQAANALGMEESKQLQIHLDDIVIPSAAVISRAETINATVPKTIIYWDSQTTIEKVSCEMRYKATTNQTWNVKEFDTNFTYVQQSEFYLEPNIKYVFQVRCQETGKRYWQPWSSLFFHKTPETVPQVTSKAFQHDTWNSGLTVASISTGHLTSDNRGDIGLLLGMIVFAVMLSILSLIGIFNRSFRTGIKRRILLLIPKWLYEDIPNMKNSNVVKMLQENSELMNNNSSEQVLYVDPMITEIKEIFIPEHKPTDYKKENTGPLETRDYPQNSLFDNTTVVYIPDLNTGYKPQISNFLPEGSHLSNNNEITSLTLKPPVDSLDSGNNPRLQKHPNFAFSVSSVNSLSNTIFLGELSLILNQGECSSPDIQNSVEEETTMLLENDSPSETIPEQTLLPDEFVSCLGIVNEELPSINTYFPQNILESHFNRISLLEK
# Protocol: Compounds were serially diluted in 100% (v/v) DMSO) and plated using an Echo acoustic dispenser (Labcyte) into 1536-well non-treated black assay plates (Corning #9146). […] After 5 h at 37° C., 5% CO2, 95% relative humidity, cells were placed at 20° C. and treated with BioGlo reagent (Promega) according to the Manufacturer's instructions. Luminescence was measured on a Pherastar FSX (BMG LabTech).
# [2] = target: T2, IL-23-stimulated phosphorylated STAT3 in peripheral blood mononuclear cells (PBMCs) (Homo sapiens, UniProt Q5VWK5); experiment: PBMC pSTAT3 Assay; format: cell-based; conditions: PBMCs from healthy donors, IL-23 5 ng/mL, 30 minutes, read-out: PBMC pSTAT3 IC50
# T2 sequence (Q5VWK5 24-629): T1 sequence (Q5VWK5 24-629)
# Protocol: Cryopreserved peripheral blood mononuclear cells (PBMCs) from healthy donors were thawed and washed twice in ImmunoCult-XF T cell expansion medium (XF-TCEM) supplemented with CTL anti-aggregate wash. The cells were counted, resuspended at 2-6×10^5 cells per mL XF-TCEM supplemented with penicillin/streptomycin and 100 ng/mL IL-1β (BioLegend, 579404), and cultured in tissue culture flasks coated with anti-CD3 (eBioscience, 16-0037-85 or BD Pharmingen, 555329) at 37° C. in 5% CO2. On day 4 of culture, PBMCs were collected, washed twice in RPMI-1640 supplemented with 0.1% BSA (RPMI-BSA), and incubated in RPMI-BSA in upright tissue culture flasks for ˜4 hours at 37° C. in 5% CO2. Following this ‘starvation,’ a total of 6×10^4 cells in 30 μL RPMI-BSA was transferred into each well of a 384-well plate pre-spotted with peptide or DMSO. The cells were incubated for 30 minutes prior to the addition of IL-23 at a final concentration of 5 ng/mL. The cells were stimulated with cytokine for 30 minutes at 37° C. in 5% CO2, transferred onto ice for 10 minutes, and lysed. Cell lysates were stored at −80° C. until phosphorylated STAT3 was measured using the phospho-STAT panel kit (Meso Scale Discovery, K15202D).
molecule,measurement,setting,value
CC(=O)NCCCC[C@@H]1NC(=O)[C@H](Cc2c[nH]c3c(C)cccc23)NC(=O)[C@H]([C@@H](C)O)NC(=O)[C@H](CC(N)=O)NC(=O)[C@@H](NC(=O)[C@@H](CCCNC(=N)N)NC(C)=O)C(C)(C)SSC(C)(C)[C@@H](C(=O)N[C@@H](Cc2ccc(OCCN)cc2)C(=O)N[C@@H](Cc2ccc3cc(Br)ccc3c2)C(=O)NC2(C(=O)N[C@@H](CCC(=O)O)C(=O)N[C@@H](CC(N)=O)C(=O)NC3(C(N)=O)CCOCC3)CCOCC2)NC1=O,"ring closure, yield after HPLC","[1]; from Ac-dArg-Pen-Asn-Thr-7MeTrp-Lys(Ac)-Pen-AEF-6Br2Nal-THP-Glu-Asn-THP-NH2, I2/MeOH, 20% MeCN/H2O, 0.977 mM",34.1%
"CC(=O)N[C@H](CCCCC[N+](C)(C)C)C(=O)N[C@@H]1C(=O)N[C@@H](CC(=O)N(C)C)C(=O)N[C@@H]([C@@H](C)O)C(=O)N[C@@H](Cc2c[nH]c3c(C)cccc23)C(=O)N[C@@H](CCCCN(C)C(C)=O)C(=O)N[C@H](C(=O)N[C@@H](Cc2ccc(OCCN)cc2)C(=O)N[C@@H](Cc2ccc3cc(O)ccc3c2)C(=O)NC2(C(=O)N[C@@H](CCC(=O)O)C(=O)N[C@@H](CC(N)=O)C(=O)N[C@@H](Cc3cccnc3)C(=O)N(C)CC(=O)N(C)C)CCOCC2)C(C)(C)SSC1(C)C [SEQ ID NO: 389, MeCO-hk(Me)3-Pen(3)-N(N(Me)2)-T-7MeW-K(NMeAc)-Pen(3)-AEF-6OH2Nal-THP-E-N-3Pya-Sar-CON(Me)2] (Ac-[d(hLys(Me3))][Pen]D(NMe2)T[Trp(7-Me)][Lys(Me)](Ac)[Pen][AEF][2Nal(6-OH)][Thp]EN[3Pal][Sar]-NMe2; disulfide 2-7)",pIC50,IL-23R,> 8.00
same,"ring closure, yield after HPLC","[1]; from Ac-dhLys(Me3)-Pen-Asn(NMe2)-Thr-7MeTrp-Lys(NMeAc)-Pen-AEF-6OH2Nal-THP-Glu-Asn-3Pya-Sar-NMe2?, I2/MeOH, 20% MeCN/H2O, 0.92 mM",11%
same,pIC50,[2],> 11.00
MeCO-Pen(3)-E(2)-T-7MeW-K(Ac)-Pen(3)-AEF(2)-6OH2Nal-THP-K(Ac)-N-3Pya-Sar-CONH2,"ring closure, yield after HPLC","[1]; I2/MeOH, 20% MeCN/H2O, 0.85 mM",8.28%
"CC(=O)NCCCC[C@@H]1NC(=O)[C@H](Cc2c[nH]c3c(-c4cccc(NC(C)=O)c4)cccc23)NC(=O)[C@H]([C@@H](C)O)NC(=O)[C@H](CC(N)=O)NC(=O)[C@@H](NC(=O)[C@@H](CCCNC(=N)N)NC(C)=O)C(C)(C)SSC(C)(C)[C@@H](C(=O)N[C@@H](Cc2ccc(OCCN)cc2)C(=O)N[C@@H](Cc2ccc3cc(O)ccc3c2)C(=O)NC2(C(=O)N[C@@H](CCC(=O)O)C(=O)N[C@@H](CC(N)=O)C(=O)N[C@@H](Cc3cccnc3)C(=O)N(C)CC(N)=O)CCOCC2)NC1=O [compound 287, MeCO-r-Pen(3)-N-T-7(3NAcPh)W-K(Ac)-Pen(3)-AEF-6OH2Nal-THP-E-N-3Pya-Sar-CONH2] (Ac-[dR][Pen]NT[Trp(7-(3-AcNH-Ph))]K(Ac)[Pen][AEF][2Nal(6-OH)][Thp]EN[3Pal][Sar]-NH2; disulfide 2-7)",pIC50,IL-23R,> 8.00
same,"ring closure, yield after HPLC","[1]; from Ac-dArg-Pen-Asn-Thr-7(3NAcPh)Trp-Lys(Ac)-Pen-AEF-6OH2Nal-THP-Glu-Asn-3Pya-Sar-NH2, I2/MeOH, 20% MeCN/H2O, 0.8 mM",26%
same,pIC50,[2],10.00 to 11.00
Cc1cccc2c(C[C@@H]3NC(=O)[C@H]([C@@H](C)O)NC(=O)[C@H](CC(N)=O)NC(=O)[C@@H](NC(=O)CCOCCOCC[N+](C)(C)C)C(C)(C)SSC(C)(C)[C@@H](C(=O)N[C@@H](Cc4ccc(OCCN)cc4)C(=O)N[C@@H](Cc4ccc5cc(O)ccc5c4)C(=O)NC4(C(=O)N[C@@H](CCCCN(C)C(=O)CCOCCOCC[N+](C)(C)C)C(=O)N[C@@H](CC(N)=O)C(=O)N[C@@H](Cc5cccnc5)C(=O)N(C)CC(N)=O)CCOCC4)NC(=O)[C@H](CCCCN(C)C(=O)CCOCCOCC[N+](C)(C)C)NC3=O)c[nH]c12,"ring closure, yield after HPLC","[1]; from cPEG3aCO-Pen-Asn-Thr-7MeTrp-Lys(NMecPEG3a)-Pen-AEF-6OH2Nal-THP-Lys(NMecPEG3a)-Asn-3Pya-Sar-NH2, I2/MeOH, 20% MeCN/H2O, 0.6 mM",11.7%
MeCO-Pen(3)-N(N(Me)2)-T-7MeW-Dab(NMecarn)-Pen(3)-AEF-6OH2Nal-THP-Dab(NMecarn)-N-3Pya-Sar-CON(Me)2,"ring closure, yield after HPLC","[1]; I2/AcOH, MeCN/H2O, 2.09 mM",23%
MeCO-k(d)-Pen(3)-N-T-7MeW-K(Ac)-Pen(3)-AEF-6OH2Nal-THP-E-N-3Pya-Sar-CONH2,"ring closure, yield after HPLC","[1]; I2/AcOH, MeCN/H2O, 2.19 mM",31%
CC(=O)NCCCC[C@@H]1NC(=O)[C@H](Cc2c[nH]c3c(C)cccc23)NC(=O)[C@H]([C@@H](C)O)NC(=O)[C@H](CC(N)=O)NC(=O)[C@@H](NC(=O)[C@@H](CCCNC(=N)N)NC(C)=O)C(C)(C)SSC(C)(C)[C@@H](C(=O)N[C@@H](Cc2ccc(OCCN)cc2)C(=O)N[C@@H](Cc2ccc3cc(O)ccc3c2)C(=O)NC2(C(=O)N[C@@H](CCC(=O)O)C(=O)N[C@@H](CC(N)=O)C(=O)N[C@@H](Cc3cccnc3)C(=O)N(C)CC(=O)N[C@@H](CCCCNC(=O)COCCOCCNC(=O)COCCOCCNC(=O)CC[C@H](NC(=O)CCCCCCCCCCCCCCCCC(=O)O)C(=O)O)C(N)=O)CCOCC2)NC1=O,"ring closure, yield after HPLC","[1]; from Ac-dArg-Pen-Asn-Thr-7MeTrp-Lys(Ac)-Pen-AEF-6OH2Nal-THP-Glu-Asn-3Pya-Sar-Lys(PEG2PEG2gEC18OH)-NH2, I2/MeOH, 20% MeCN/H2O, 0.857 mM",12.1%
CC(=O)NCCCC[C@@H]1NC(=O)[C@H](Cc2c[nH]c3c(C)cccc23)NC(=O)[C@H]([C@@H](C)O)NC(=O)[C@H](CC(N)=O)NC(=O)[C@@H](NC(C)=O)C(C)(C)SSC(C)(C)[C@@H](C(=O)N[C@@H](Cc2ccc(OCCN)cc2)C(=O)N[C@@H](Cc2ccc3cc(O)ccc3c2)C(=O)NC2(C(=O)N[C@@H](CCC(=O)O)C(=O)N[C@@H](CC(N)=O)C(=O)N[C@@H](Cc3cccnc3)C(=O)N(C)CC(=O)N[C@@H](CCCCNC(=O)COCCOCCNC(=O)COCCOCCNC(=O)CC[C@H](NC(=O)CCCCCCCCCCCCCCCCC(=O)O)C(=O)O)C(N)=O)CCOCC2)NC1=O,"ring closure, yield after HPLC","[1]; from Ac-Pen-Asn-Thr-7MeTrp-Lys(Ac)-Pen-AEF-6OH2Nal-THP-Glu-Asn-3Pya-Sar-Lys(PEG2PEG2gEC18OH)-NH2, I2/MeOH, 20% MeCN/H2O, 0.82 mM",12.9%
"CC(=O)NCCCC[C@@H]1NC(=O)[C@H](Cc2c[nH]c3c(C)cccc23)NC(=O)[C@H]([C@@H](C)O)NC(=O)[C@H](CC(N)=O)NC(=O)[C@@H](NC(C)=O)C(C)(C)SSC(C)(C)[C@@H](C(=O)N[C@@H](Cc2ccc(OCCN)cc2)C(=O)N[C@@H](Cc2ccc3cc(O)ccc3c2)C(=O)NC2(C(=O)N[C@@H](CCC(=O)O)C(=O)N[C@@H](CC(N)=O)C(=O)N[C@@H](Cc3cccnc3)C(=O)N(C)CC(N)=O)CCOCC2)NC1=O [SEQ ID NO: 428, MeCO-Pen(3)-N-T-7MeW-K(Ac)-Pen(3)-AEF-6OH2Nal-THP-E-N-3Pya-Sar-CONH2] (Ac-[Pen]NT[Trp(7-Me)]K(Ac)[Pen][AEF][2Nal(6-OH)][Thp]EN[3Pal][Sar]-NH2; disulfide 1-6)",pIC50,IL-23R,> 8.00
same,"ring closure, yield after HPLC","[1]; from Ac-Pen-Asn-Thr-7MeTrp-Lys(Ac)-Pen-AEF-6OH2Nal-THP-Glu-Asn-3Pya-Sar-NH2, I2/MeOH, 20% MeCN/H2O, 1.0 mM",8.61%
same,pIC50,[2],> 11.00
CC(=O)NCCCC[C@@H]1NC(=O)[C@H](Cc2c[nH]c3c(C)cccc23)NC(=O)[C@H]([C@@H](C)O)NC(=O)[C@H](CC(N)=O)NC(=O)[C@@H](NC(=O)[C@@H](CCCNC(=N)N)NC(C)=O)C(C)(C)SSC(C)(C)[C@@H](C(=O)N[C@@H](Cc2ccc(OCCN)cc2)C(=O)N[C@@H](Cc2ccc3cc(O)ccc3c2)C(=O)NC2(C(=O)N[C@@H](CCC(=O)O)C(=O)N[C@@H](CC(N)=O)C(=O)N[C@@H](Cc3cccnc3)C(=O)N(C)CC(N)=O)CCOCC2)NC1=O,"ring closure, yield after HPLC",[1]; from Ac-dArg-Pen-Asn-Thr-7MeTrp-Lys(Ac)-Pen-AEF-6OH2Nal-THP-Glu-Asn-3Pya-Sar-NH2,10.3%
